# Experimental data from US12540154B2, “Glucosamine derivative nanoparticle and preparating method and use thereof” (CPC Corporation, TAIWAN, priority 2023, dated 2026).
# System: HaCaT cells
# Experiment: Cell cytotoxicity test (CCK-8)
# Type: cell-based, human
# Details: 125-1,000 ppm, 24 hours, CCK-8, FIG. 6
# Procedure: HaCaT cells are seeded into a 96 well plate at 10^5 cells/well. After attachment overnight, remove culture medium. The frozen peptide (KTTKS(SEQ ID NO: 1), CRGDS(SEQ ID NO: 2), and RRRRRR(SEQ ID NO: 3)) and the glucosamine derivative nanoparticles are respectively dissolved in serum-free medium (SFM) again (final concentration 1,000 ppm). Use SFM to carry out serial dilution and get concentrations of 500 ppm, 250 ppm, and 125 ppm. Then add 100 μl samples with different concentrations into the well plate (repeat four times and a group of samples added with SFM used as control group). After being cultured for 24 hours, remove culture medium and add 10 μl CCK-8 and 100 μl PBS into each of the wells. Then react at 37° C. for 2-3 hours and read absorbance at 450 nm. Cell viability is defined as a percentage of the absorbance of the respective test groups relative to the absorbance of the control group while the cell viability of the control group is set as 100%.
compound,measurement,value
N[C@H]1C(O)O[C@H](CO)[C@@H](O)[C@@H]1O (stereo partly shown) [glucosamine],cell viability trend with concentration,reduced a bit along with the increasing glucosamine concentration
